# Test system: HUVECs
# Test: 2D angiogenesis assay, HUVECs on the hydrogel surface
# Assay type: cell-based, human
# Protocol: Angiogenesis and vascularization assays were adopted to optimize hydrogels with RGD. For the two-dimensional (2D) culture of HUVECs, cells (4×10^4/well in a 96-well plate) were plated on the surface of HA hydrogels (40 μL; HA-SH: 4 mg/mL and PEGDA: 5 mg/mL) with various concentrations of RGD (0, 0.01, 0.1, and 1 mM). Matrigel was used as a positive control. After 24 h, HUVECs were imaged after LIVE/DEAD staining. As for the 3D cell culture, to avoid cell precipitation onto the surface of the plate, the plate was first coated with the hydrogels (40 μL hydrogel; HA-SH: 4 mg/mL, PEGDA: 2 mg/mL, F127-SS-DA: 4 mg/mL; RGD: 0, 0.10, 0.25, and 0.50 mM). Then, HUVECs and hASCs mixed with hydrogel precursor solutions (0.75×10^6/mL hydrogel; 40 μL hydrogel) were plated on top of hydrogels. In addition, both cells were cultured inside hydrogels with F127-SS-DA or F127-DA (40 μL; HA-SH: 4 mg/mL, PEGDA: 2 mg/mL, RGD: 0.1 mM; F127-DA or F127-SS-DA: 2, 4, 8, 10, 20, and 50 mg/mL). The cells were imaged after immunostaining for F-actin. […]
# Cell viability was examined with a LIVE/DEAD staining kit and then the images were captured by a Zeiss LSM 880 laser scanning confocal microscope. The cell morphology was also evaluated by immunostaining with Alexa Fluor Phalloidin 568 or 488 for F-actin and 4′,6-diamidino-2-phenylindole dihydrochloride (DAPI, Molecular Probes) for cell nuclei.
substance,measurement,setting,value
RGD,endothelial cell layer on the hydrogel surface,RGD at 1 mM,supported the formation of a full layer of endothelial cells
same,endothelial cell adhesion,"RGD conjugated to a hyaluronic acid-based hydrogel, FIG. 18",improved endothelial cell adhesion in a dose-dependent manner

# Reference: patent US20240138838A1, “SURFACE-MODIFIED ANASTOMOSIS DEVICE” (Washington University, priority 2022, published 2024)
